The results in this text go back to patent US8440830B2, “Tetrahydro-fused pyridines as histone deacetylase inhibitors” (4SC AG, priority 2007, dated 2013).

The test relates to A549 NSCLC cells. The test is described as follows: Cellular cytotoxicity assay (Alamar Blue), A549. Format: cell-based. The note with it: Homo sapiens, 72 h, upper end given as ≧100, read-out: IC50 (μM), cytotoxicity towards A549 NSCLC cells. On the procedure:
The anti-proliferative activity of the histone deacetylase inhibitory compounds as described herein, is evaluated using the following cell lines: HeLa and HeLa-KB (cervical carcinoma), H460 (non small cell lung cancer), A549 (non-small cell lung cancer), MCF7 (breast carcinoma), MCF10A (normal, non tumorigenic breast epithelial), MDA-MB468 (breast carcinoma), MDA-MB435 (breast carcinoma), MDA-MB231 (breast carcinoma), SKBR-3 (breast carcinoma), SKOV-3 (ovarial carcinoma), A-2780 (ovarial carcinoma), RKO (colon carcinoma), HCT-15 (colon carcinoma), HCT-116 (colon carcinoma), PC3 (prostate carcinoma), BPH1 (benign prostate hyperplasia), AsPC1 (pancreatic carcinoma), Ca127 (tongue carcinoma), A-431 (vulva carcinoma), Hec1A (endometrial carcinoma), Saos-2 (osteosarcoma), U87MG (glioblastoma), WM266-4 (melanoma), K562 (chronic myeloid leukemia), EOL1 (acute hypereosinophilic myeloid leukemia), CCRF-CEM and CCRF-CEM VCR1000 (acute lymphoblastic leukemia sensitive and resistant towards Vincristine). For quantification of cellular proliferation/living cells the Alamar Blue (Resazurin) cell viability assay is applied (O'Brien et al. Eur J Biochem 267, 5421-5426, 2000). In this assay Resazurin is reduced to the fluorescent resorufine by cellular dehydrogenase activity, correlating with viable, proliferating cells. The examples are dissolved as 20 mM solutions in dimethylsulfoxide (DMSO) and subsequently diluted in semi-logarithmic steps. Cell lines are seeded at respective density into 96 well flat bottom plates in a volume of 200 μl per well. 24 h after seeding 1 μl each of the compound dilutions are added into each well of the 96 well plate. Each compound dilution is tested as quadruplicates. Wells containing untreated control cells are filled with 200 μl DMEM medium containing 0.5% v:v DMSO. The cells are then incubated with the compounds for 72 h at 37° C. in a humidified atmosphere containing 5% carbon dioxide. To determine the viability of the cells, 20 μl of a Resazurin solution (Sigma; 90 mg/l) are added. After 4 h incubation at 37° C. the fluorescence is measured at an extinction of λ=544 nm and an emission of λ=590 nm. For the calculation of the cell viability the emission value from untreated cells is set as 100% viability and the emission rates of treated cells are set in relation to the values of untreated cells. Viabilities are expressed as % values. The corresponding IC50 values of the compounds for cytotoxic activity are determined from the concentration-effect curves by means of non-linear regression.
In general terms: The colour change of resazurin is a common sign of viable cells or microbes.

The IC50 is the midpoint of a concentration-inhibition curve. `Nc1ccccc1NC(=O)c1nc2c(s1)CN(C(=S)Nc1cccc3cnccc13)CC2` [Example 104, N-(2-aminophenyl)-5-[(isoquinolin-5-ylamino)carbonothioyl]-4,5,6,7-tetrahydro[1,3]thiazolo[5,4-c]pyridine-2-carboxamide]: the IC50 is no less than 0.2 µM. On to `COc1ccc(NC(=O)N2CCc3nc(C(=O)Nc4cc(N(C)C)ccc4N)sc3C2)cc1` [Example 53, N^2-[2-amino-5-(dimethylamino)phenyl]N^5-(4-methoxyphenyl)-6,7-dihydro[1,3]thiazolo[5,4-c]pyridine-2,5(4H)-dicarboxamide], for which the IC50 was no less than 0.2 µM. As for `Nc1ccccc1NC(=O)c1nc2c(s1)CN(c1ccc(C(F)(F)F)cn1)CC2` [Example 195, N-(2-aminophenyl)-5-[5-(trifluoromethyl)pyridin-2-yl]-4,5,6,7-tetrahydro[1,3]thiazolo[5,4-c]pyridine-2-carboxamide], the IC50 is no less than 0.2 µM. `COc1ccc(NC(=O)N2CCc3nc(C(=O)Nc4cc(-c5cccs5)ccc4N)sc3C2)cc1` [Example 54, N^2-[2-amino-5-(2-thienyl)phenyl]-N^5-(4-methoxyphenyl)-6,7-dihydro[1,3]thiazolo[5,4-c]pyridine-2,5(4H)-dicarboxamide]: the IC50 was no less than 0.2 µM. The same measure for `COc1ccc(N=C(NC#N)N2CCc3nc(C(=O)Nc4cc(C(C)C)ccc4N)sc3C2)cc1` [Example 125, N-(2-amino-5-isopropylphenyl)-5-{(cyanoamino)[(4-methoxyphenyl)-imino]methyl}-4,5,6,7-tetrahydro[1,3]thiazolo[5,4-c]pyridine-2-carboxamide]: no less than 0.2 µM; for `COc1ccc(N=C(C)N2CCc3nc(C(=O)Nc4cc(OC)ccc4N)sc3C2)cc1` [Example 130, N-(2-amino-5-methoxyphenyl)-5-[N-(4-methoxyphenyl)ethanimidoyl]-4,5,6,7-tetrahydro[1,3]thiazolo[5,4-c]pyridine-2-carboxamide]: no less than 0.2 µM; for `CN(C)c1ccc(NC(=NC#N)N2CCc3nc(C(=O)Nc4ccccc4N)sc3C2)cc1` [Example 120, N-(2-aminophenyl)-5-[(cyanoimino){[4-(dimethylamino)phenyl]amino}methyl]-4,5,6,7-tetrahydro[1,3]thiazolo[5,4-c]pyridine-2-carboxamide]: no less than 0.2 µM. For `COc1ccc(NC(=O)C(=O)N2CCc3nc(C(=O)Nc4cc(C(C)C)ccc4N)sc3C2)cc1` [Example 81, N-(2-amino-5-isopropylphenyl)-5-{[(4-methoxyphenyl)amino](oxo)acetyl}-4,5,6,7-tetrahydro[1,3]thiazolo[5,4-c]pyridine-2-carboxamide], the IC50 is no less than 0.2 µM. For `COc1ccc(S(=O)(=O)N2CCc3nc(C(=O)Nc4cc(OC)ccc4N)sc3C2)cc1` [Example 171, N-(2-amino-5-methoxyphenyl)-5-[(4-methoxyphenyl)sulfonyl]-4,5,6,7-tetrahydro[1,3]thiazolo[5,4-c]pyridine-2-carboxamide], the half-inhibitory concentration (IC50) was no less than 0.2 µM. As for `Cc1ccc(NC(=O)C(=O)N2CCc3nc(C(=O)Nc4ccccc4N)sc3C2)nc1` [Example 76, N-(2-aminophenyl)-5-{[(5-methylpyridin-2-yl)amino](oxo)acetyl}-4,5,6,7-tetrahydro[1,3]thiazolo[5,4-c]pyridine-2-carboxamide], the IC50 is no less than 0.2 µM.

For the molecule `Nc1ccccc1NC(=O)c1nc2c(s1)CN(C(=S)NC1CCC(c3cccnc3)CC1)CC2` (centres unmarked) [Example 101, N-(2-aminophenyl)-5-{[(4-pyridin-3-ylcyclohexyl)amino]carbonothioyl}-4,5,6,7-tetrahydro[1,3]thiazolo[5,4-c]pyridine-2-carboxamide], the 50% inhibitory concentration (IC50) is no less than 0.2 µM. For `Nc1ccccc1NC(=O)c1nc2c(s1)CN(C(=O)C(=O)Nc1ccc(N3CCOCC3)nc1)CC2` [Example 73, N-(2-aminophenyl)-5-{[(6-morpholin-4-ylpyridin-3-yl)amino](oxo)acetyl}-4,5,6,7-tetrahydro[1,3]thiazolo[5,4-c]pyridine-2-carboxamide] the value was no less than 0.2 µM.

On to `Nc1ccccc1NC(=O)c1nc2c(s1)CN(S(=O)(=O)c1cccc(F)c1)CC2` [Example 163, N-(2-aminophenyl)-5-[(3-fluorophenyl)sulfonyl]-4,5,6,7-tetrahydro[1,3]-thiazolo[5,4-c]pyridine-2-carboxamide], for which the IC50 was no less than 0.2 µM. With `Nc1ccccc1NC(=O)c1nc2c(s1)CN(C(=C[N+](=O)[O-])Nc1ccccc1)CC2` [Example 136, N-(2-aminophenyl)-5-[1-anilino-2-nitroyinyl]-4,5,6,7-tetrahydro[1,3]thiazolo[5,4-c]pyridine-2-carboxamide], the half-inhibitory concentration (IC50) is no less than 0.2 µM. With `CN(C)c1ccc(NC(=S)N2CCc3nc(C(=O)Nc4ccccc4N)sc3C2)cc1` [Example 99, N-(2-aminophenyl)-5-({[4-(dimethylamino)phenyl]amino}carbonothioyl)-4,5,6,7-tetrahydro[1,3]thiazolo[5,4-c]pyridine-2-carboxamide], the IC50 was no less than 0.2 µM. On to `CN(C)c1ccc(N(C)C(=O)N2CCc3nc(C(=O)Nc4ccccc4N)sc3C2)cc1` [Example 22, N^2-(2-aminophenyl)-N^5-[4-(dimethylamino)phenyl]-N^5-methyl-6,7-dihydro-[1,3]thiazolo[5,4-c]pyridine-2,5(4H)-dicarboxamide], for which the IC50 was no less than 0.2 µM. For `CN=C(Nc1ccc(OC)cc1)N1CCc2nc(C(=O)Nc3cc(OC)ccc3N)sc2C1` [Example 115, N-(2-amino-5-methoxyphenyl)-5-[[(4-methoxyphenyl)amino](methylimino)methyl]-4,5,6,7-tetrahydro[1,3]thiazolo[5,4-c]pyridine-2-carboxamide], the concentration for half-maximal inhibition (IC50) is no less than 0.2 µM. For `COc1ccc(N(C)C(=O)N2CCc3nc(C(=O)Nc4ccccc4N)sc3C2)cc1OC` [Example 24, N^2-(2-aminophenyl)-N^5-(3,4-dimethoxyphenyl)-N^5-methyl-6,7-dihydro[1,3]-thiazolo[5,4-c]pyridine-2,5(4H)-dicarboxamide] the value was no less than 0.2 µM; for `Nc1ccccc1NC(=O)c1nc2c(s1)CN(C(=O)Oc1ccc(-c3ccccc3)cc1)CC2` [Example 181, Biphenyl-4-yl 2-[(2-aminophenyl)carbamoyl]-6,7-dihydro[1,3]thiazolo[5,4-c]pyridine-5(4H)-carboxylate], no less than 0.2 µM; for `COc1ccc(N)c(NC(=O)c2nc3c(s2)CN(C(C)=Nc2ccccc2)CC3)c1` [Example 129, N-(2-amino-5-methoxyphenyl)-5-[N-phenylethanimidoyl]-4,5,6,7-tetrahydro[1,3]thiazolo[5,4-c]pyridine-2-carboxamide], no less than 0.2 µM. On to `Nc1ccccc1NC(=O)c1nc2c(s1)CN(S(=O)(=O)c1cccc(C(F)(F)F)c1)CC2` [Example 162, N-(2-aminophenyl)-5-{[3-(trifluoromethyl)phenyl]sulfonyl}-4,5,6,7-tetrahydro[1,3]thiazolo[5,4-c]pyridine-2-carboxamide], for which the IC50 is no less than 0.2 µM.

Take `CC(=Nc1ccc(N(C)C)cc1)N1CCc2nc(C(=O)Nc3ccccc3N)sc2C1` [Example 134, N-(2-aminophenyl)-5-{N-[4-(dimethylamino)phenyl]ethanimidoyl}-4,5,6,7-tetrahydro[1,3]thiazolo[5,4-c]pyridine-2-carboxamide]: the 50% inhibitory concentration (IC50) is no less than 0.2 µM. Regarding `CCCCNC(=O)C(=O)N1CCc2nc(C(=O)Nc3cc(OC)ccc3N)sc2C1` [Example 83, N-(2-amino-5-methoxyphenyl)-5-[(butylamino)(oxo)acetyl]-4,5,6,7-tetrahydro[1,3]thiazolo[5,4-c]pyridine-2-carboxamide], the IC50 was no less than 0.2 µM. For `Nc1ccccc1NC(=O)c1nc2c(s1)CN(C(=O)Nc1ccc(N3CCC3)nc1)CC2` [Example 35, N^2-(2-aminophenyl)-N^5-(6-azetidin-1-ylpyridin-3-yl)-6,7-dihydro[1,3]thiazolo[5,4-c]pyridine-2,5(4H)-dicarboxamide], the IC50 was no less than 0.2 µM. In the case of `COc1ccc(N)c(NC(=O)c2nc3c(s2)CN(C(=O)Nc2ccc(N(C)C)cc2)CC3)c1` [Example 47, N^2-(2-amino-5-methoxyphenyl)-N^5-[4-(dimethylamino)phenyl]-6,7-dihydro-[1,3]thiazolo[5,4-c]pyridine-2,5(4H)-dicarboxamide], the IC50 is no less than 0.2 µM.

`CC(C)S(=O)(=O)N1CCc2nc(C(=O)Nc3ccccc3N)sc2C1` [Example 164, N-(2-aminophenyl)-5-(isopropylsulfonyl)-4,5,6,7-tetrahydro[1,3]thiazolo[5,4-c]pyridine-2-carboxamide]: the IC50 was no less than 0.2 µM.
